Among the data in patent publication US20260258064A1 (SIRONAX LTD., priority 2023, published 2026) are IC50 values, retold here.

The term IC50 denotes the concentration that inhibits the measured activity by half.

For this assay, the target named is T1, SARM1 (50-724) (Homo sapiens, UniProt Q6SZW1).
T1 construct: Purified SARM1 (50-724) with a final concentration of 2 nM was pre-incubated with a test compound
T1 sequence (Q6SZW1 50-724): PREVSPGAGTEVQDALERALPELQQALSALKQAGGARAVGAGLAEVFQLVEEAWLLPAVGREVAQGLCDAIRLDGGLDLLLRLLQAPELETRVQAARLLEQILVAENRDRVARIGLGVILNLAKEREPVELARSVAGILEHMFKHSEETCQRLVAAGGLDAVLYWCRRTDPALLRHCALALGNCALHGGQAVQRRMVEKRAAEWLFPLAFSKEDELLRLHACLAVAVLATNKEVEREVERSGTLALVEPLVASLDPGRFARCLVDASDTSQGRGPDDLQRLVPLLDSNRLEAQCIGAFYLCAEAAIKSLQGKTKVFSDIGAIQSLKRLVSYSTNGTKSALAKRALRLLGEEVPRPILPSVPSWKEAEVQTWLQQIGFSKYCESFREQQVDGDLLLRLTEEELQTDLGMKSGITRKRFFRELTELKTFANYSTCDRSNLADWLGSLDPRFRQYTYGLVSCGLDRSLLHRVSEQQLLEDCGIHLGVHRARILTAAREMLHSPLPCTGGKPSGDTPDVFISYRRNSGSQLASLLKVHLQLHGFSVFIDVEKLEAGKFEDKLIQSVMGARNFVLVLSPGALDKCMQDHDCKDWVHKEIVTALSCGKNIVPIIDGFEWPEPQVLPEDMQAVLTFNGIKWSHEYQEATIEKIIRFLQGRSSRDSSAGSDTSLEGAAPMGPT
Nature of the assay: SARM1 (50-724) enzymatic assay (LC-MS/MS). Particulars: Purified SARM1 (50-724) 2 nM, NMN as activator, NAD+ as substrate, 1 h at room temperature, read-out: IC50 (SARM1 inhibitory activity). The assay is classed as biochemical. In a few lines:
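Human SARM1 (50-724), 2 nM, pre-incubated 15 min at room temperature with compound in Dulbecco's PBS. Reaction started with 200 µM NMN (activator) plus […] NAD^+ substrate, run 1 h at room temperature, quenched with 70% acetonitrile. Turnover quantified by LC-MS/MS; IC50 reported.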

As to `Clc1cccc(-n2cnnc2-c2nc3cc(C4CCOC4)ccc3[nH]2)c1Cl` (stereo not drawn) [Example 128, 2-(4-(2,3-dichlorophenyl)-4H-1,2,4-triazol-3-yl)-5-(tetrahydrofuran-3-yl)-1H-benzo[d]imidazole], the IC50 is not above 100 nM. For `FC(F)(F)c1ccncc1-n1cnnc1-c1nc2cc(C3CCOCC3)ccc2[nH]1` [Compound 352, 5-tetrahydropyran-4-yl-2-[4-[4-(trifluoromethyl)-3-pyridyl]-1,2,4-triazol-3-yl]-1H-benzimidazole], the IC50 fell in the range of 100 to 500 nM. With `FC(F)(F)c1ccc2[nH]c(-c3nncn3-c3cnccc3C(F)(F)F)c(-c3ccccn3)c2c1` [Compound 390, 3-(pyridin-2-yl)-5-(trifluoromethyl)-2-(4-(4-(trifluoromethyl)pyridin-3-yl)-4H-1,2,4-triazol-3-yl)-1H-indole], the IC50 was not above 100 nM. The figure for `Fc1cccc(-n2c(CN3CC4(CCO4)C3)nnc2-c2nc3cc(C(F)(F)F)ccc3[nH]2)c1Cl` [Compound 398, 6-((4-(2-chloro-3-fluorophenyl)-5-(6-(trifluoromethyl)-1H-benzo[d]imidazol-2-yl)-4H-1,2,4-triazol-3-yl)methyl)-1-oxa-6-azaspiro[3.3]heptane] is not above 100 nM.

For `OCCOc1ccc(OC(F)(F)F)c(-n2cnnc2-c2nc3cc(C(F)(F)F)ccc3[nH]2)n1` [Compound 250], the IC50 is not above 100 nM. For the compound `FC(F)C1(c2ccc3[nH]c(-c4nncn4-c4ccncc4OC(F)(F)F)nc3c2)CC1` [Compound 237], the IC50 was not above 100 nM. The value for `FC(F)c1ccncc1-n1cnnc1-c1nc2cc(C(F)(F)F)ccc2[nH]1` [Compound 252, 2-(4-(4-(difluoromethyl)pyridin-3-yl)-4H-1,2,4-triazol-3-yl)-5-(trifluoromethyl)-1H-benzo[d]imidazole] was not above 100 nM; that for `CC1CC1c1cc(F)c2[nH]c(-c3nncn3-c3cnccc3C(F)(F)F)nc2c1` (stereo not drawn) [Compound 330, 7-fluoro-5-(2-methylcyclopropyl)-2-(4-(4-(trifluoromethyl)pyridin-3-yl)-4H-1,2,4-triazol-3-yl)-1H-benzo[d]imidazole] was not above 100 nM; that for `COc1cc(-c2ccccc2Cl)c(-c2nc3cc(C(F)(F)F)ccc3[nH]2)nn1` [Compound 405, 2-(4-(2-chlorophenyl)-6-methoxypyridazin-3-yl)-5-(trifluoromethyl)-1H-benzo[d]imidazole] was 100 to 500 nM. Take `FC(F)(F)c1ccc2[nH]c(-c3cccn3-c3nccnc3C(F)(F)F)nc2c1` [Compound 313]: the concentration for half-maximal inhibition (IC50) is 500 to 1000 nM.

`OCCOc1cc(-c2nc3cc(C(F)(F)F)ccc3[nH]2)c(-c2cccc(Cl)c2Cl)cn1` [Example 65]: the concentration for half-maximal inhibition (IC50) is not above 100 nM. Regarding `Fc1cc(C2(c3nccs3)CC2)cc2nc(-c3nncn3-c3cnccc3C(F)(F)F)[nH]c12` [Compound 422, 2-[1-[7-fluoro-2-[4-[4-(trifluoromethyl)-3-pyridyl]-1,2,4-triazol-3-yl]-1H-benzimidazol-5-yl]cyclopropyl]thiazole], the concentration for half-maximal inhibition (IC50) was not above 100 nM. In the case of `Cc1ccc2[nH]c(C3=C(C4CCCC4)C(=O)OC3)nc2c1` [Compound 8, 3-Cyclopentyl-4-(5-methyl-1H-benzo[d]imidazol-2-yl)furan-2(5H)-one], the IC50 was more than 1000 nM.

As for `OCc1cc(-n2cnnc2-c2nc3cc(C(F)(F)F)ccc3[nH]2)c(OC(F)(F)F)cn1` [Compound 253, (5-(trifluoromethoxy)-4-(3-(5-(trifluoromethyl)-1H-benzo[d]imidazol-2-yl)-4H-1,2,4-triazol-4-yl)pyridin-2-yl)methanol], the IC50 is not above 100 nM. Regarding `FC(F)(F)c1ccc2[nH]c(-c3nncn3-c3nnccc3C(F)(F)F)nc2c1` [Compound 429, 5-(trifluoromethyl)-2-(4-(4-(trifluoromethyl)pyridazin-3-yl)-4H-1,2,4-triazol-3-yl)-1H-benzo[d]imidazole], the IC50 is not above 100 nM. `FC(F)(F)c1ccc2[nH]c(-c3nncn3-c3cnccc3C(F)(F)F)c(C3CC3)c2c1` [Compound 366, 3-cyclopropyl-5-(trifluoromethyl)-2-(4-(4-(trifluoromethyl)pyridin-3-yl)-4H-1,2,4-triazol-3-yl)-1H-indole]: the half-maximal inhibitory concentration (IC50) was not above 100 nM. Turning to `CNC(=O)c1cc(F)c(Cl)c(-n2cnnc2-c2nc3cc(C(F)(F)F)cc(F)c3[nH]2)c1` [Compound 205, 4-chloro-3-fluoro-5-(3-(7-fluoro-5-(trifluoromethyl)-1H-benzo[d]imidazol-2-yl)-4H-1,2,4-triazol-4-yl)-N-methylbenzamide], the IC50 is not above 100 nM. As to `OC1CC(OCc2nnc(-c3nc4cc(C(F)(F)F)ccc4[nH]3)n2-c2cccc(Cl)c2Cl)C1` (stereo not drawn) [Example 127], the IC50 was not above 100 nM. For the compound `Cc1ccc2[nH]c(-c3nccn3C3CCCC3)nc2c1` [Compound 2, 2-(1-cyclopentylimidazol-2-yl)-5-methyl-1H-benzimidazole], the IC50 fell in the range of 500 to 1000 nM. As for `FC(F)(F)Oc1ccc2[nH]c(-c3nncn3-c3cccc(Cl)c3Cl)nc2c1` [Example 132, 2-(4-(2,3-dichlorophenyl)-4H-1,2,4-triazol-3-yl)-5-(trifluoromethoxy)-1H-benzo[d]imidazole], the 50% inhibitory concentration (IC50) was not above 100 nM.

`Cc1cc(C(F)(F)F)c(-n2cnnc2-c2nc3cc(C(F)(F)F)ccc3[nH]2)nn1` [Compound 391, 2-(4-(6-methyl-4-(trifluoromethyl)pyridazin-3-yl)-4H-1,2,4-triazol-3-yl)-5-(trifluoromethyl)-1H-benzo[d]imidazole]: the IC50 is 100 to 500 nM. `Fc1cc(CC(F)(F)F)cc2nc(-c3nncn3-c3cnccc3C(F)(F)F)[nH]c12` [Compound 282, 7-fluoro-5-(2,2,2-trifluoroethyl)-2-(4-(4-(trifluoromethyl)pyridin-3-yl)-4H-1,2,4-triazol-3-yl)-1H-benzo[d]imidazole]: the half-maximal inhibitory concentration (IC50) was not above 100 nM.

With `Fc1ccc(-n2cnnc2-c2nc3cc(C(F)(F)F)cnc3[nH]2)c(Cl)c1F` [Compound 170, 2-(4-(2-chloro-3,4-difluorophenyl)-4H-1,2,4-triazol-3-yl)-6-(trifluoromethyl)-3H-imidazo[4,5-b]pyridine], the IC50 is not above 100 nM. Regarding `O=C1OCC(c2nc3cc(C(F)(F)F)ccc3[nH]2)=C1c1cccc(Cl)c1Cl` [Compound 25, 3-(2,3-Dichlorophenyl)-4-(5-(trifluoromethyl)-1H-benzo[d]imidazol-2-yl)furan-2(5H)-one], the IC50 was more than 1000 nM. The value for `Cn1cc(-c2cccc(Cl)c2Cl)c(-c2nc3cc(C(C)(C)O)ccc3[nH]2)cc1=O` [Example 83, 5-(2,3-Dichlorophenyl)-4-(5-(2-hydroxypropan-2-yl)-1H-benzo[d]imidazol-2-yl)-1-methylpyridin-2 (1H)-one] was more than 1000 nM.

For the compound `CCC(O)(CC)c1ccc2[nH]c(-c3nncn3-c3ccc(F)c(F)c3Cl)nc2c1` [Compound 151, 3-(2-(4-(2-chloro-3,4-difluorophenyl)-4H-1,2,4-triazol-3-yl)-1H-benzo[d]imidazol-5-yl)pentan-3-ol], the half-maximal inhibitory concentration (IC50) is not above 100 nM.

Turning to `FC1(F)CN(c2c(Cl)ccc3[nH]c(-c4nncn4-c4cnccc4C(F)(F)F)nc23)C1` [Compound 358, 5-chloro-4-(3,3-difluoroazetidin-1-yl)-2-(4-(4-(trifluoromethyl)pyridin-3-yl)-4H-1,2,4-triazol-3-yl)-1H-benzo[d]imidazole], the 50% inhibitory concentration (IC50) was 100 to 500 nM. For the compound `FC(F)(F)c1ccc2[nH]c(-c3nncn3-c3c(Cl)ccc4[nH]ncc34)nc2c1` [Compound 209, 5-chloro-4-(3-(5-(trifluoromethyl)-1H-benzo[d]imidazol-2-yl)-4H-1,2,4-triazol-4-yl)-1H-indazole], the IC50 is not above 100 nM. On to `C#Cc1cc(-n2cnnc2-c2nc3cc(C(F)(F)F)ccc3[nH]2)c(OC(F)(F)F)cn1` [Compound 226, 2-(4-(2-ethynyl-5-(trifluoromethoxy)pyridin-4-yl)-4H-1,2,4-triazol-3-yl)-5-(trifluoromethyl)-1H-benzo[d]imidazole], for which the IC50 was not above 100 nM. As for `CC(c1cc(F)c2[nH]c(-c3nncn3-c3cnccc3C(F)(F)F)nc2c1)c1cc[nH]n1` (stereo not drawn) [Compound 430, 5-(1-(1H-pyrazol-5-yl)ethyl)-7-fluoro-2-(4-(4-(trifluoromethyl)pyridin-3-yl)-4H-1,2,4-triazol-3-yl)-1H-benzo[d]imidazole], the IC50 was not above 100 nM. Regarding `OCCc1cc(-n2cnnc2-c2nc3cc(C(F)(F)F)ccc3[nH]2)c(OC(F)(F)F)cn1` [Compound 265], the half-maximal inhibitory concentration (IC50) was not above 100 nM.

Turning to `Cc1c(Cl)ccnc1-n1cnnc1-c1nc2cc(C(F)(F)F)ccc2[nH]1` [Example 67], the IC50 was not above 100 nM. The value for `OCCOc1cc(-n2cnnc2-c2nc3cc(C(F)(F)F)ccc3[nH]2)c(OC(F)(F)F)cc1F` [Compound 263, 2-(2-fluoro-4-(trifluoromethoxy)-5-(3-(5-(trifluoromethyl)-1H-benzo[d]imidazol-2-yl)-4H-1,2,4-triazol-4-yl)phenoxy)ethan-1-ol] was not above 100 nM.
